Assay [1] addresses T1, CDK9 kinase (Homo sapiens, UniProt P50750).
T1 construct: purchased Millipore 14-685M
The assay can be described thus: Inhibitory effect on the kinase activity of CDK9 in vitro. The format is biochemical. Particulars: CDK9 kinase (Millipore), CTD3 substrate polypeptide, Caliper. The procedure:
The detection of the inhibitory effect of the compounds of the present disclosure on the kinase activity of CDK9 in vitro was determined by the following method:
Compound preparation: The compound was accurately weighed and dissolved in DMSO (Sigma, D2650) to a concentration of 100 um for later use. The compound was diluted to 5-fold of a desired highest concentration, and diluted 4-fold into 6 concentration gradients, allowing the final concentration of the compound in the reaction system to be 100, 25, 6.25, 1.56, 0.39, 0.098 nM. 5 ul was taken to a 384-well plate (Corning, 4512).
Detection: Data was collected by Caliper.
Calculation: The IC50 value was calculated by Graphpad prism 5.0 software according to the concentration of the compound and the corresponding signal value.

In assay [2] the test system is phosphorylation of RNA pol II Ser2 in Mv4-11 cells. The assay can be described thus: Inhibition of phosphorylation of RNA pol II Ser2 in Mv4-11 cells (SDS-PAGE, FIG. 1). It is filed as cell-based. The settings on record: 6 hours, different concentrations. The procedure:
The inhibition effect of the compounds of the present disclosure on the in vitro Mv4-11 cell RNA pol II Ser 2 was determined by the following method:
Cell inoculation: Mv4-11 cells with good growing state in logarithmic growth phase were inoculated into a six-well plate with 2*10^5 cells/well, and cultured overnight at 37° C. and under 5% CO2 condition.
Administration: The compound was diluted with 2 mL of 1640 medium containing 10% FBS and 1% PS. 2 ul of the medium containing the compound was added to the overnight cultured cells, and it was placed in a 37° C., 5% CO2 cell incubator for 6 hours.
Protein extraction and quantification: Cell suspension was collected and centrifuged at 1000 g for 5 min, the cell culturing medium was discarded, and PBS was added for resuspension and centrifugation; it was repeated three times, the residual liquid was sucked dry, 80 uL cell lysate was added per well, it was placed to ice, shaked for 10 min on a shaker, centrifuged at 12000 g for 5 min, and the supernatant, ie, the total protein solution, was collected; the protein concentration was tested by BCA.

Assay [3] relates to Mv4-11 cells. The assay can be described thus: Inhibition of the proliferation of Mv4-11 cells (CCK8). The format is cell-based. The settings on record: Mv4-11 cell proliferation, CCK8 OD450. As to the method:
The inhibition effect of the compounds of the present disclosure on the proliferation of Mv4-11 cells (ATCC:CRL-9591TM) in vitro was determined by the following method:
Cell inoculation: Mv4-11 cells with good growing state in logarithmic growth phase were inoculated into a 96-well plate at 20000 cells per well and 50 uL, and cultured at 37° C. and under 5% CO2 condition for 2-4 h. Administration: The compound was diluted with 1640 medium containing 10% FBS and 1% PS: 0.4 uL of the compound with an initial concentration of 1 mM was placed in a dilution plate, each added with 199.6 uL of the above culture medium, and gradiently diluted 4-fold, so that the final concentration in the added cell was 1000, 250, 62.5, 15.625, 3.91, 0.98, 0.24, 0.06 nM. 50 μL of the medium containing the compound was sequentially added, and it was placed in a 37° C., 5% CO2 cell incubator for 48 hours.
Detection: 10 uL CCK8 (Dojindo, CK 04) solution was added to each well, incubated in 37° C. 5% CO2 cell incubator for 2 hours, and then the OD450 value was read by Synegry H1 (BioTek) multimode microplate reader.
Calculation: The IC50 value was calculated using Graphpad prism 5.0 software according to the concentration of the compound and the corresponding signal value.

Data on 16 compounds can be found in US20230192703A1, “Polycyclic amide derivative as CDK9 inhibitor, preparation method therefor and use thereof” (Suzhou AlphaMa Biotechnology Co., Ltd., priority 2020, published 2023).

One may read the IC50 as the concentration needed to halve the response being measured. Low values mean greater potency, high ones weaker potency.

T1 sequence (P50750 whole entry): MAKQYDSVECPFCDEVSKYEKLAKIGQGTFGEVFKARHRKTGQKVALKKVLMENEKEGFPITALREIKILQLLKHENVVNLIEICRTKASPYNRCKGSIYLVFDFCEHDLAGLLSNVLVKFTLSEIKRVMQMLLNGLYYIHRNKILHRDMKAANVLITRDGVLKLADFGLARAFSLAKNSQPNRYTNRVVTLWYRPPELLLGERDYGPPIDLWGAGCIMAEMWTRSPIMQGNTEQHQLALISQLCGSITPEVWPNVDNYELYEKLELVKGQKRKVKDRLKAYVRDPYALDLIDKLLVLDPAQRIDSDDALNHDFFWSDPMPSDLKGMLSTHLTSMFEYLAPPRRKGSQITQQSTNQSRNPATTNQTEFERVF
T1 sequence (O60563 whole entry partner): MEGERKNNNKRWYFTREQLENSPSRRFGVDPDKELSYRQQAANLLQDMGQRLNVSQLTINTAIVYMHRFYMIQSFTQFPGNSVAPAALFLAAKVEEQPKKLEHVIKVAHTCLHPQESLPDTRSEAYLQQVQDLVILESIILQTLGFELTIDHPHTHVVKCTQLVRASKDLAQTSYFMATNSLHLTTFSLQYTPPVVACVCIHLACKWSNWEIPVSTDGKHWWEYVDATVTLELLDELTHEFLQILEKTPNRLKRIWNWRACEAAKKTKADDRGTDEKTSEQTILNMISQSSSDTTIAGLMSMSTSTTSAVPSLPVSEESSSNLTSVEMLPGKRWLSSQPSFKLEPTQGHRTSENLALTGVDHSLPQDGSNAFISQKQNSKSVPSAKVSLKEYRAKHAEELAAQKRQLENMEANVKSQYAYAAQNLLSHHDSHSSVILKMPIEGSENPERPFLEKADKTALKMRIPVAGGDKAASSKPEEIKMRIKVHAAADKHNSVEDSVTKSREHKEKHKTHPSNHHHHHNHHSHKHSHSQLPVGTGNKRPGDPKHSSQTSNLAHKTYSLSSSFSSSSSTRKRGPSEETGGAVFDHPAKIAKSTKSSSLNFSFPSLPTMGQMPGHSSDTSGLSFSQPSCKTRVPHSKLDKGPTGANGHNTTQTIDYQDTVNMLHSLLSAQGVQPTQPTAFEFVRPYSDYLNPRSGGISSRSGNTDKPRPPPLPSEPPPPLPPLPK

On to `CC(=O)N1C[C@H]2CC(C(=O)Nc3cc(-c4cc(C#N)n5c4CC(C)(C)C5)c(Cl)cn3)C[C@H]2C1` (single isomer, unassigned) [Compound 7-1], for which the IC50 in assay [1] is 3.2 nM; in assay [3] (Homo sapiens, MV4-11, 48 h), 17.5 nM. In addition, the “inhibitory effect on the phosphorylation of RNA pol II Ser 2 in Mv4-11 cells” value in assay [2] is listed as “significant inhibitory effect”.
The like results for `Cn1ccc([C@@H]2CCC[C@H](C(=O)Nc3cc(-c4cnn5c4CC(C)(C)C5)c(Cl)cn3)C2)n1` (single isomer, unassigned) [Compound 22-1-1] were, in that order, 3.2 nM, 2.8 nM and “significant inhibitory effect”.
Turning to `CC(=O)N1C[C@H]2CC(C(=O)Nc3cc(-c4cc(C(N)=O)n5c4CC(C)(C)C5)ccn3)C[C@H]2C1` (single isomer, unassigned) [Compound 32-1], the results for the IC50 in assay [1] and in assay [3] (48 hours) were 4.8 nM and 3.5 nM, respectively.
For the compound `CC(=O)N1C[C@H]2CC(C(=O)Nc3cc(-c4cc(C(N)=O)n5c4CC(C)(C)C5)ccn3)C[C@H]2C1` (single isomer, unassigned) [Compound 32-2], the IC50 in assay [1] came to 2.8 nM; in assay [3] (48 hours), 0.9 nM.
Consider `CC(=O)N[C@@H]1CCC[C@H](C(=O)Nc2cc(-c3cc(C#N)n4c3CC(C)(C)C4)c(Cl)cn2)C1` [Compound 1, (1S,3R)-3-acetamido-N-(5-chloro-4-(5-cyano-2,2-dimethyl-2,3-dihydro-1H-pyrrolizin-7-yl)pyridin-2-yl)cyclohexane-1-carboxamide], for which the IC50 in assay [1] worked out at 2.1 nM; in assay [3] (Homo sapiens, MV4-11, 48 h) it was 1.6 nM.
`CC(=O)N[C@@H]1CCC[C@H](C(=O)Nc2cc(-c3cc(C(N)=O)n4c3CC(C)(C)C4)c(Cl)cn2)C1` [Compound 2, 7-(2-((1S,3R)-3-acetylaminocyclohexane-1-carboxamido)-5-chloropyridin-4-yl)-2,2-dimethyl-2,3-dihydro-1H-pyrrolizine-5-carboxamide]: the IC50 came out at 2.8 nM in assay [1] and 27.6 nM in assay [3] (Homo sapiens, MV4-11, 48 h).
The like results for `C[C@H](N)C(=O)N1C[C@H]2CC(C(=O)Nc3cc(-c4cnn5c4CC(C)(C)C5)c(Cl)cn3)C[C@H]2C1` (stereo partly drawn) [Compound 5, (3aR,6aS)-2-(L-alanyl)-N-(5-chloro-4-(5,5-dimethyl-5,6-dihydro-4H-pyrrolo[1,2-b]pyrazol-3-yl)pyridin-2-yl)octahydrocyclopenta[c]pyrrole-5-carboxamide] were, in that order, 2.8 nM and 7.6 nM.
The like results for `C[C@@H](N)C(=O)N1C[C@H]2CC(C(=O)Nc3cc(-c4cnn5c4CC(C)(C)C5)c(Cl)cn3)C[C@H]2C1` (stereo partly drawn) [Compound 6, (3aR,6aS)-2-(D-alanyl)-N-(5-chloro-4-(5,5-dimethyl-5,6-dihydro-4H-pyrrolo[1,2-b]pyrazol-3-yl)pyridin-2-yl)octahydrocyclopenta[c]pyrrole-5-carboxamide] were, in that order, 3.7 nM and 5.4 nM.
In the case of `CC(=O)N[C@@H]1CCC[C@H](C(=O)Nc2cc(-c3cc(C(N)=O)n4c3CC(C)(C)C4)ccn2)C1` [Compound 12], the IC50 worked out at 2.9 nM in assay [1] and 26 nM in assay [3] (Homo sapiens, MV4-11, 48 h). The “inhibitory effect on the phosphorylation of RNA pol II Ser 2 in Mv4-11 cells” value in assay [2] was “significant inhibitory effect”.
Turning to `CC1(C)Cc2c(-c3cc(NC(=O)[C@@H]4C[C@H]5C[C@H](C(N)=O)C[C@H]5C4)ncc3Cl)cc(C(N)=O)n2C1` [Compound 15-1, (2s,3aR,5r,6aS)-N-(4-(5-carbamoyl-2,2-dimethyl-2,3-dihydro-1H-pyrrolizin-7-yl)-5-chloropyridin-2-yl)octahydropentalene-2,5-dicarboxamide], the IC50 in assay [1] was determined as 10.1 nM; in assay [3] (Homo sapiens, MV4-11, 48 h) it was 7.9 nM.
For `CC1(C)Cc2c(-c3cc(NC(=O)[C@H]4C[C@H]5C[C@@H](C(N)=O)C[C@H]5C4)ncc3Cl)cc(C(N)=O)n2C1` [Compound 15-2, (2r,3aR,5s,6aS)-N-(4-(5-carbamoyl-2,2-dimethyl-2,3-dihydro-1H-pyrrolizin-7-yl)-5-chloropyridin-2-yl)octahydropentalene-2,5-dicarboxamide], in that order: 3.7 nM and 14.3 nM.
For `CC(=O)N[C@@H]1CCC[C@H](C(=O)Nc2cc(-c3cc(C(N)=O)c4n3CC(C)(C)C4)c(Cl)cn2)C1` [Compound 17, 5-(2-((1S,3R)-3-acetylaminocyclohexane-1-carboxamido)-5-chloropyridin-4-yl)-2,2-dimethyl-2,3-dihydro-1H-pyrrolizine-7-carboxamide], in that order: 4.9 nM and 36.1 nM.
Take `CC(=O)N[C@@H]1CCC[C@H](C(=O)Nc2cc(-c3cc(C#N)c4n3CC(C)(C)C4)c(F)cn2)C1` [Compound 27, (1S,3R)-3-acetamido-N-(4-(7-cyano-2,2-dimethyl-2,3-dihydro-1H-pyrrolizin-5-yl)-5-fluoropyridin-2-yl)cyclohexane-1-carboxamide]: the IC50 in assay [1] turned out to be 2.2 nM; in assay [3] (Homo sapiens, MV4-11, 48 h), 3.5 nM.
For the compound `CC(=O)N[C@@H]1CCC[C@H](C(=O)Nc2cc(-c3cnn4c3CC(C)(C)C4)c(C(F)(F)F)cn2)C1` [Compound 30, (1S,3R)-3-acetamido-N-(4-(5,5-dimethyl-5,6-dihydro-4H-pyrrolo[1,2-b]pyrazol-3-yl)-5-(trifluoromethyl)pyridin-2-yl)cyclohexane-1-carboxamide], the IC50 in assay [1] worked out at 6.3 nM; in assay [3] (Homo sapiens, MV4-11, 48 h) it was 15.3 nM.
For `CC(=O)N[C@@H]1CCC[C@H](C(=O)Nc2cc(-c3cc(C(N)=O)c4n3CC(C)(C)C4)c(F)cn2)C1` [Compound 31, 5-(2-((1S,3R)-3-acetylaminocyclohexane-1-carboxamido)-5-fluoropyridin-4-yl)-2,2-dimethyl-2,3-dihydro-1H-pyrrolizine-7-carboxamide], in that order: 4.8 nM and 9.2 nM.
The like results for `CC(=O)N[C@H]1C[C@@H]2C[C@@H](C(=O)Nc3cc(-c4cc(C(N)=O)n5c4CC(C)(C)C5)c(F)cn3)C[C@@H]2C1` [Compound 34-1, 7-(2-((2r,3aR,5s,6aS)-5-acetylaminooctahydropentalene-2-carboxamido)-5-fluoropyridin-4-yl)-2,2-dimethyl-2,3-dihydro-1H-pyrrolizine-5-carboxamide] were, in that order, 4.9 nM and 2.3 nM.
